Some test systems named below: A549 NSCLC; COLO 205 colon; HCC-2998 colon; MALME-3M melanoma; MOLT-4 leukemia; OVCAR-4 ovarian; RPMI-8226 leukemia; SK-MEL-28 melanoma; UACC-62 melanoma; 786-0 renal; MCF7 breast; MDA-MB-435; NCI-H522 lung; PC-3 prostate; SN12C renal; SNB-75 CNS; SW-620 colon; HS 578T breast; DU-145 prostate.
Experiment in all cases: NCI anticancer screen, dose series, 48 h

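Protocol summary: plate cells (96-well), add compound at 5 concentrations, incubate 48 h, interpolate endpoints linearly. TGI: total growth inhibition.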 Where only a bound is given, the exact number is not on record here.

For the molecule `Cn1c(=O)nc2n(-c3ccc(Cl)cc3Cl)c3ccccc3nc-2c1=O`, the TGI in the assay on A549 NSCLC is 13.3 µM; in the assay on COLO 205 colon it was 8.73 µM; in the assay on HCC-2998 colon, 14.5 µM; with MALME-3M melanoma, 3.26 µM; in the assay on MOLT-4 leukemia it was 35.7 µM; with OVCAR-4 ovarian it was 15.4 µM. The TGI is above 100 µM in the assay on RPMI-8226 leukemia, 23.5 µM in the assay with SK-MEL-28 melanoma and 6.16 µM with UACC-62 melanoma.
With `CC1CC/C(=C\c2ccc(N(C)C)cc2)C(=O)/C1=C/c1ccc(N(C)C)cc1` (centres undefined), the TGI with 786-0 renal, with A549 NSCLC, in the assay with COLO 205 colon, with HCC-2998 colon, in the assay on MALME-3M melanoma and in the assay on MCF7 breast was above 100 µM each time. Besides, the TGI in the assay with MDA-MB-435, in the assay on MOLT-4 leukemia, in the assay on NCI-H522 lung, with OVCAR-4 ovarian, in the assay on PC-3 prostate and in the assay on SK-MEL-28 melanoma was above 100 µM each time. In addition, the TGI with SN12C renal, in the assay with SNB-75 CNS, in the assay on SW-620 colon and in the assay with UACC-62 melanoma was above 100 µM in each case.
Consider `CC(C)CNC(=O)Cn1c2c(c3ccccc31)CCCC2`, for which the TGI in the assay with 786-0 renal is 61.2 µM; in the assay with A549 NSCLC, above 100 µM; in the assay with COLO 205 colon it was above 100 µM; in the assay with HCC-2998 colon, above 100 µM; with HS 578T breast, above 100 µM; with MALME-3M melanoma, above 100 µM. Also, the TGI in the assay with MCF7 breast, with MDA-MB-435, in the assay with MOLT-4 leukemia, in the assay on OVCAR-4 ovarian, with PC-3 prostate and in the assay on RPMI-8226 leukemia was above 100 µM in each case. The TGI in the assay on SK-MEL-28 melanoma, with SN12C renal, in the assay with SW-620 colon and in the assay with UACC-62 melanoma was above 100 µM in each case.
On to `COC1CC(n2cnc3c(N)ncnc32)OC1CO` (centres undefined), for which the TGI with 786-0 renal, in the assay with A549 NSCLC, in the assay with COLO 205 colon, in the assay with HCC-2998 colon, in the assay on MALME-3M melanoma and in the assay with MOLT-4 leukemia was above 100 µM in each case. Also, the TGI in the assay on NCI-H522 lung, with OVCAR-4 ovarian, in the assay on RPMI-8226 leukemia, with SK-MEL-28 melanoma, in the assay with SNB-75 CNS and in the assay on SW-620 colon was above 100 µM throughout. Moreover, the TGI in the assay on UACC-62 melanoma was above 100 µM.
Regarding `CC(=O)c1cccc(NCn2nnc3ccccc32)c1`, the TGI in the assay on 786-0 renal, in the assay with A549 NSCLC, in the assay on COLO 205 colon, with HCC-2998 colon, in the assay on MALME-3M melanoma and with MOLT-4 leukemia was above 100 µM in each case. For the same molecule, the TGI in the assay with NCI-H522 lung, in the assay on OVCAR-4 ovarian, with RPMI-8226 leukemia, with SK-MEL-28 melanoma, in the assay with SN12C renal and in the assay on SNB-75 CNS was above 100 µM throughout. Also, the TGI with SW-620 colon and in the assay on UACC-62 melanoma was above 100 µM throughout.
Turning to `O=C(Nc1ccc([N+](=O)[O-])cc1)C(=O)C(C(=O)c1ccccc1F)C1OC(=O)c2ccccc21` (centres undefined), the TGI was above 100 µM with A549 NSCLC; 68 µM with COLO 205 colon; 41.4 µM in the assay on HCC-2998 colon; above 100 µM with MOLT-4 leukemia; 41.6 µM in the assay on NCI-H522 lung; above 100 µM in the assay on OVCAR-4 ovarian. Also, the TGI was 68.9 µM in the assay on RPMI-8226 leukemia; above 100 µM in the assay on SK-MEL-28 melanoma; above 100 µM in the assay on SN12C renal; 96.4 µM with SNB-75 CNS; above 100 µM in the assay with SW-620 colon; above 100 µM in the assay on UACC-62 melanoma.
As for `OC(c1ccccc1)(c1ccccc1)c1cccnc1`, the TGI with 786-0 renal, in the assay with A549 NSCLC, in the assay on COLO 205 colon, in the assay with HCC-2998 colon, in the assay on MALME-3M melanoma and with OVCAR-4 ovarian was above 100 µM each time. The TGI in the assay on RPMI-8226 leukemia, in the assay with SK-MEL-28 melanoma, with SN12C renal, with SNB-75 CNS, in the assay on SW-620 colon and in the assay on UACC-62 melanoma was above 100 µM in each case.
Regarding `CC(C)=CCC/C(C)=C/Cc1c(O)ccc2c1[nH]c1cc(O)c(C)cc12`, the TGI with 786-0 renal, with A549 NSCLC, in the assay with COLO 205 colon, with HCC-2998 colon, in the assay on MALME-3M melanoma and in the assay with MOLT-4 leukemia was above 25 µM in each case. The TGI in the assay with NCI-H522 lung was above 25 µM; in the assay with OVCAR-4 ovarian it was 12.1 µM; in the assay with RPMI-8226 leukemia, above 25 µM; in the assay with SK-MEL-28 melanoma, above 25 µM; in the assay on SN12C renal, above 25 µM; with SW-620 colon, above 25 µM. In the assay on UACC-62 melanoma, this molecule had a TGI above 25 µM.
In the case of `Cc1ccc(-n2cnc3c(N/N=C4\SCC(=O)N4c4ccccc4)ncnc32)cc1`, the TGI in the assay on 786-0 renal came out at 12.1 µM; with A549 NSCLC it was 29.6 µM; with COLO 205 colon, 17.1 µM; with DU-145 prostate, 17.5 µM; with HS 578T breast, 26.6 µM; with MALME-3M melanoma, 16.3 µM. Further, the TGI in the assay on MDA-MB-435 amounted to 13.3 µM; in the assay on MOLT-4 leukemia, 5.48 µM; in the assay with NCI-H522 lung it was 7.28 µM; in the assay on OVCAR-4 ovarian, 21.2 µM; in the assay on PC-3 prostate, 17.8 µM; in the assay on SK-MEL-28 melanoma it was 11.4 µM. The TGI in the assay on SN12C renal worked out at 11.7 µM; in the assay with SW-620 colon, 16.5 µM; with UACC-62 melanoma, 17.2 µM.
Turning to `C=CC12CN(C)C3C4COC(CC41)C1(C(=O)Nc4ccccc41)C32` (centres undefined), the TGI in the assay on A549 NSCLC, in the assay with COLO 205 colon, in the assay on HCC-2998 colon, in the assay with MALME-3M melanoma, with MCF7 breast and in the assay on MOLT-4 leukemia was above 200 µM throughout. Besides, the TGI in the assay with NCI-H522 lung, in the assay on OVCAR-4 ovarian, in the assay on RPMI-8226 leukemia, with SK-MEL-28 melanoma, in the assay with SN12C renal and with SNB-75 CNS was above 200 µM in each case. For the same molecule, the TGI in the assay on SW-620 colon and in the assay on UACC-62 melanoma was above 200 µM throughout.

(Values after PubChem BioAssay (NCI).)
